PMC5980230, “Mucosal absorption of therapeutic peptides by harnessing the endogenous sorting of glycosphingolipids” (eLife, 2018)
Where “and” joins values, the source holds several entries; their conditions need not be identical. Equal values may be shown once.

Columns and labels:
[1] = GLP-1 in blood by streptavidin capture and luciferase bioassay; format: in vivo; conditions: individual mice, Ex 3 excluded from Figure 5E
Excerpt: We confirmed intestinal absorption of the C6:0-GM1-GLP-1 into the systemic circulation in two ways. First, we measured GLP-1 activity in blood samples by streptavidin capture and quantitative luciferase bioassay (Figure 5E). […] In a second approach, we synthesized an all D-amino acid (non-degradable) isomer of GLP-1 coupled to AF488 to allow for direct quantitative measurement of the […] isomer in the blood using the same streptavidin capture assay as described for our reporter peptide (Figure 5A). Again, we find evidence for absorption of the GLP-1 cargo when fused to the C6:0-GM1 transport vehicle, but no absorption for the unfused GLP-1 peptide (Figure 5F). These experiments were performed in two different laboratories, using two different animal facilities with the same results. In all assays (Figure 5C–5F), we find the efficiency of intestinal absorption enabled by fusion to C6:0-GM1 was again almost as efficient as for IP injection of the peptide alone, implicating a high level of bioavailability for the GM1-fusion molecules applied by gastric gavage.

[2] = Intraperitoneal glucose tolerance test; format: in vivo; parameters: unit not given here; conditions: IP injected, individual mice, not corrected
Excerpt: To test for absorption and biologic incretin activity in vivo, we gastrically gavaged equal doses (10 nmol/kg) of the C6:0-GM1-GLP-1 fusion, the unfused GLP-1 peptide (GLP-1 oral), or vehicle into wild-type mice and measured effects on glucose metabolism by glucose tolerance test (Figure 5C). […] The effect on glucose tolerance by gastrically administered C6:0-GM1-GLP-1 was similar to the effect achieved by the intraperitoneal injection of GLP-1 peptide alone, implicating an equally high level of bioavailability for the gastrically-delivered GM1-fusion molecule (Figure 5D).
For intraperitoneal glucose tolerance tests, a 10 nmol/kg dose was used to gavage overnight-fasted WT C57/BL/6 mice (male 7–9 weeks old) with GM1-GLP-1 fusion molecules or unfused GLP-1. Glucose measurements following i.p administration of 2 mg/g glucose solution were obtained from tail vein blood applied directly to glucose strips as in ([te Welscher et al., 2014]).

[3] = oral, 15 min after gastric gavage

GLP-1
GLP-1 in blood, corrected for vehicle ([1]; IP-injected): 6.787 fmols per 100uls blood and 7.191 fmols per 100uls blood and 4.472 fmols per 100uls blood and 6.8463 fmols per 100uls blood and 3.406 fmols per 100uls blood and 4.493 fmols per 100uls blood and 6.695 fmols per 100uls blood and 7.88 fmols per 100uls blood and 13.0711 fmols per 100uls blood and 7.126 fmols per 100uls blood
GLP-1 in blood, raw data not corrected for vehicle ([1]; IP-injected): 8.132 fmols in 100 uls blood and 10.5063 fmols in 100 uls blood and 7.066 fmols in 100 uls blood and 8.153 fmols in 100 uls blood and 6.729 fmols in 100 uls blood and 7.914 fmols in 100 uls blood and 21.2711 fmols in 100 uls blood and 15.3265 fmols in 100 uls blood and 7.237 fmols in 100 uls blood and 7.641 fmols in 100 uls blood
GLP-1 in blood, corrected for vehicle [1, 3]: 0.3766 fmols per 100uls blood and 0.3584 fmols per 100uls blood and 0.3383 fmols per 100uls blood and 0.4572 fmols per 100uls blood and -1.003 fmols per 100uls blood and -1.627 fmols per 100uls blood and 2.205 fmols per 100uls blood and 0.253 fmols per 100uls blood and 1.235 fmols per 100uls blood and 0.303 fmols per 100uls blood and -0.01924 fmols per 100uls blood and 0.2681 fmols per 100uls blood and -0.002238 fmols per 100uls blood and -1.223 fmols per 100uls blood and 0.4322 fmols per 100uls blood and -3.718 fmols per 100uls blood
GLP-1 in blood, raw data not corrected for vehicle [1, 3]: 2.657 fmols in 100 uls blood and 2.033 fmols in 100 uls blood and 5.865 fmols in 100 uls blood and 3.913 fmols in 100 uls blood and 4.895 fmols in 100 uls blood and 3.963 fmols in 100 uls blood and 0.01476 fmols in 100 uls blood and 0.3021 fmols in 100 uls blood and 0.03176 fmols in 100 uls blood and 6.977 fmols in 100 uls blood and 8.632 fmols in 100 uls blood and 4.482 fmols in 100 uls blood and 0.8266 fmols in 100 uls blood and 0.8084 fmols in 100 uls blood and 0.7883 fmols in 100 uls blood and 0.9072 fmols in 100 uls blood
total area under glucose tolerance curves (AUC) [2]: 2184 and 5775 and 3223 and 5783 and 10013 and 10613 and 14078 and 12630 and 14685 and 4613 and 1628 and 6533 and 2735 and 13695 and 6728 and 15120 and 10928 and 9270 and 7061 and 9383 and 7166 and 10043 and 10253
